Experimental data taken from PubChem BioAssay (NCI).
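The compound was tested at five concentrations on cells cultured in 96-well plates, with a 48-hour exposure period. TGI marks complete inhibition of growth.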

Assays:
Assay in all cases: NCI tumour cell line growth inhibition, 48 h
XF 498 CNS = tested on: XF 498 CNS
ACHN renal = tested on: ACHN renal
SK-MEL-28 melanoma = tested on: SK-MEL-28 melanoma
HCT-15 colon = tested on: HCT-15 colon
P388 leukemia = tested on: P388 leukemia
UACC-62 melanoma = tested on: UACC-62 melanoma
NCI-H522 lung = tested on: NCI-H522 lung
NCI-H23 lung = tested on: NCI-H23 lung
SN12C renal = tested on: SN12C renal
SK-MEL-2 melanoma = tested on: SK-MEL-2 melanoma
HT29 colon = tested on: HT29 colon
MDA-MB-435 = tested on: MDA-MB-435
HOP-92 NSCLC = tested on: HOP-92 NSCLC
OVCAR-4 ovarian = tested on: OVCAR-4 ovarian
SK-OV-3 ovarian = tested on: SK-OV-3 ovarian
SR leukemia = tested on: SR leukemia
NCI-H226 lung = tested on: NCI-H226 lung
CCRF-CEM leukemia = tested on: CCRF-CEM leukemia
NCI/ADR-RES ovarian = tested on: NCI/ADR-RES ovarian
KM20L2 colon = tested on: KM20L2 colon
A549 NSCLC = tested on: A549 NSCLC
LXFL 529 NSCLC = tested on: LXFL 529 NSCLC
SNB-78 CNS = tested on: SNB-78 CNS
MOLT-4 leukemia = tested on: MOLT-4 leukemia
RXF 393 renal = tested on: RXF 393 renal
SNB-19 CNS = tested on: SNB-19 CNS
HCC-2998 colon = tested on: HCC-2998 colon
HOP-62 NSCLC = tested on: HOP-62 NSCLC
OVCAR-5 ovarian = tested on: OVCAR-5 ovarian
RXF-631 renal = tested on: RXF-631 renal
SW-620 colon = tested on: SW-620 colon
PC-3 prostate = tested on: PC-3 prostate
EKVX NSCLC = tested on: EKVX NSCLC
BT-549 breast = tested on: BT-549 breast
SN12K1 renal = tested on: SN12K1 renal
UACC-257 melanoma = tested on: UACC-257 melanoma
SF-295 CNS = tested on: SF-295 CNS
MALME-3M melanoma = tested on: MALME-3M melanoma
KM12 colon = tested on: KM12 colon
DLD-1 colon = tested on: DLD-1 colon
DMS 273 small cell lung = tested on: DMS 273 small cell lung
SF-539 CNS = tested on: SF-539 CNS
COLO 205 colon = tested on: COLO 205 colon
CAKI-1 renal = tested on: CAKI-1 renal
RPMI-8226 leukemia = tested on: RPMI-8226 leukemia
OVCAR-8 ovarian = tested on: OVCAR-8 ovarian
M19-MEL melanoma = tested on: M19-MEL melanoma
HL-60(TB) leukemia = tested on: HL-60(TB) leukemia
DU-145 prostate = tested on: DU-145 prostate
U251 CNS = tested on: U251 CNS
M14 melanoma = tested on: M14 melanoma
SK-MEL-5 melanoma = tested on: SK-MEL-5 melanoma
786-0 renal = tested on: 786-0 renal
HS 578T breast = tested on: HS 578T breast
SNB-75 CNS = tested on: SNB-75 CNS
OVCAR-3 ovarian = tested on: OVCAR-3 ovarian
DMS 114 small cell lung = tested on: DMS 114 small cell lung
MCF7 breast = tested on: MCF7 breast
HOP-18 NSCLC = tested on: HOP-18 NSCLC
P388/ADR leukemia = tested on: P388/ADR leukemia
HCT-116 colon = tested on: HCT-116 colon
UO-31 renal = tested on: UO-31 renal
T-47D breast = tested on: T-47D breast
NCI-H460 lung = tested on: NCI-H460 lung
SF-268 CNS = tested on: SF-268 CNS
IGROV1 ovarian = tested on: IGROV1 ovarian
K-562 leukemia = tested on: K-562 leukemia
MDA-N = tested on: MDA-N
A498 renal = tested on: A498 renal
TK-10 renal = tested on: TK-10 renal
LOX IMVI melanoma = tested on: LOX IMVI melanoma
MDA-MB-231 breast = tested on: MDA-MB-231 breast

What does the source list for `Clc1ccc(C(c2ccccc2Cl)C(Cl)Cl)cc1` (configuration not stated)?
TGI (XF 498 CNS): 37.2 µM; TGI (ACHN renal): 38.8 µM; TGI (SK-MEL-28 melanoma): 36.7 µM; TGI (HCT-15 colon): 36.5 µM; TGI (P388 leukemia): 38.2 µM; TGI (UACC-62 melanoma): 34.4 µM; TGI (NCI-H522 lung): 34.3 µM; TGI (NCI-H23 lung): 37.7 µM; TGI (SN12C renal): 37 µM; TGI (SK-MEL-2 melanoma): 35.8 µM; TGI (HT29 colon): 33.7 µM; TGI (MDA-MB-435): 32 µM; TGI (HOP-92 NSCLC): 32.1 µM; TGI (OVCAR-4 ovarian): 35.7 µM; TGI (SK-OV-3 ovarian): 39.7 µM; TGI (SR leukemia): 46.5 µM; TGI (NCI-H226 lung): 39.1 µM; TGI (CCRF-CEM leukemia): 47.1 µM; TGI (NCI/ADR-RES ovarian): 37.1 µM; TGI (KM20L2 colon): 33.8 µM; TGI (A549 NSCLC): 35.4 µM; TGI (LXFL 529 NSCLC): 38.2 µM; TGI (SNB-78 CNS): 41.5 µM; TGI (MOLT-4 leukemia): 41.1 µM; TGI (RXF 393 renal): 30.9 µM; TGI (SNB-19 CNS): 37.6 µM; TGI (HCC-2998 colon): 29.4 µM; TGI (HOP-62 NSCLC): 39.7 µM; TGI (OVCAR-5 ovarian): 33.9 µM; TGI (RXF-631 renal): 35.8 µM; TGI (SW-620 colon): 39.2 µM; TGI (PC-3 prostate): 35.5 µM; TGI (EKVX NSCLC): 32.6 µM; TGI (BT-549 breast): 30.2 µM; TGI (SN12K1 renal): 36.9 µM; TGI (UACC-257 melanoma): 37.2 µM; TGI (SF-295 CNS): 35.6 µM; TGI (MALME-3M melanoma): 33.5 µM; TGI (KM12 colon): 37.1 µM; TGI (DLD-1 colon): 38.6 µM; TGI (DMS 273 small cell lung): 36 µM; TGI (SF-539 CNS): 36.5 µM; TGI (COLO 205 colon): 38.9 µM; TGI (CAKI-1 renal): 31.8 µM; TGI (RPMI-8226 leukemia): 49 µM; TGI (OVCAR-8 ovarian): 40 µM; TGI (M19-MEL melanoma): 39 µM; TGI (HL-60(TB) leukemia): 51.5 µM; TGI (DU-145 prostate): 34.3 µM; TGI (U251 CNS): 36.8 µM; TGI (M14 melanoma): 37.1 µM; TGI (SK-MEL-5 melanoma): 36.1 µM; TGI (786-0 renal): 36.7 µM; TGI (HS 578T breast): 37.1 µM; TGI (SNB-75 CNS): 35.1 µM; TGI (OVCAR-3 ovarian): 34.3 µM; TGI (DMS 114 small cell lung): 36.7 µM; TGI (MCF7 breast): 37.8 µM; TGI (HOP-18 NSCLC): 21.6 µM; TGI (P388/ADR leukemia): 44.2 µM; TGI (HCT-116 colon): 31.4 µM; TGI (UO-31 renal): 37.4 µM; TGI (T-47D breast): 33.3 µM; TGI (NCI-H460 lung): 39.3 µM; TGI (SF-268 CNS): 37.6 µM; TGI (IGROV1 ovarian): 30.7 µM; TGI (K-562 leukemia): 44.2 µM; TGI (MDA-N): 35.1 µM; TGI (A498 renal): 38.6 µM; TGI (TK-10 renal): 37.5 µM; TGI (LOX IMVI melanoma): 40.2 µM; TGI (MDA-MB-231 breast): 35.2 µM

How did the TGI (XF 498 CNS) turn out when `C=C1C(=O)OC2C/C(C)=C/CC/C(C)=C/CCC3(COC(C)=O)OC3CC12` (configuration not stated) was run?
The TGI was 19.5 µM.

What about the TGI (ACHN renal) of the same molecule?
The TGI was 27.5 µM.

And the TGI (SK-MEL-28 melanoma)?
Its TGI is 23.1 µM.

And the TGI (HCT-15 colon)?
The TGI was 10.7 µM.

And the TGI (UACC-62 melanoma)?
Its TGI is 27.4 µM.

What about the TGI (NCI-H522 lung) of the same molecule?
The TGI was 2.9 µM.

What about the TGI (NCI-H23 lung) of the same molecule?
The TGI was 26 µM.

And the TGI (SN12C renal)?
The TGI was 34.1 µM.

And the TGI (SK-MEL-2 melanoma)?
The TGI was 14.4 µM.

What about the TGI (HT29 colon) of the same molecule?
The TGI was 24.1 µM.

And the TGI (OVCAR-4 ovarian)?
Its TGI is 46.5 µM.

And the TGI (SK-OV-3 ovarian)?
The TGI was 26.7 µM.

And the TGI (CCRF-CEM leukemia)?
Its TGI is 8.49 µM.

What about the TGI (KM20L2 colon) of the same molecule?
Its TGI is 19.9 µM.

What about the TGI (A549 NSCLC) of the same molecule?
Its TGI is 32.2 µM.

And the TGI (LXFL 529 NSCLC)?
The TGI was 8.1 µM.

And the TGI (SNB-78 CNS)?
The TGI was 30.3 µM.

What about the TGI (MOLT-4 leukemia) of the same molecule?
Its TGI is 26.3 µM.

What about the TGI (RXF 393 renal) of the same molecule?
Its TGI is 18 µM.

What about the TGI (SNB-19 CNS) of the same molecule?
Its TGI is 31.4 µM.

What about the TGI (HCC-2998 colon) of the same molecule?
Its TGI is 21.5 µM.

What about the TGI (HOP-62 NSCLC) of the same molecule?
The TGI was 34.7 µM.

And the TGI (OVCAR-5 ovarian)?
The TGI was 30.5 µM.

And the TGI (SW-620 colon)?
The TGI was 5.09 µM.

And the TGI (EKVX NSCLC)?
Its TGI is 38.6 µM.

What about the TGI (UACC-257 melanoma) of the same molecule?
The TGI was 29.6 µM.

What about the TGI (SF-295 CNS) of the same molecule?
Its TGI is 29.3 µM.

What about the TGI (MALME-3M melanoma) of the same molecule?
The TGI was 25.7 µM.

And the TGI (KM12 colon)?
Its TGI is 27.9 µM.

And the TGI (DLD-1 colon)?
The TGI was 14.4 µM.

And the TGI (DMS 273 small cell lung)?
The TGI was 20.9 µM.

What about the TGI (SF-539 CNS) of the same molecule?
The TGI was 7.85 µM.

And the TGI (COLO 205 colon)?
The TGI was 15.6 µM.

What about the TGI (CAKI-1 renal) of the same molecule?
The TGI was 9.48 µM.

What about the TGI (RPMI-8226 leukemia) of the same molecule?
Its TGI is 13 µM.

What about the TGI (OVCAR-8 ovarian) of the same molecule?
The TGI was 19.8 µM.

And the TGI (M19-MEL melanoma)?
The TGI was 26.4 µM.

What about the TGI (HL-60(TB) leukemia) of the same molecule?
Its TGI is 5.85 µM.

What about the TGI (U251 CNS) of the same molecule?
The TGI was 23.3 µM.

What about the TGI (M14 melanoma) of the same molecule?
The TGI was 18.5 µM.

And the TGI (SK-MEL-5 melanoma)?
The TGI was 28.3 µM.

And the TGI (786-0 renal)?
Its TGI is 17.4 µM.

What about the TGI (SNB-75 CNS) of the same molecule?
Its TGI is 27.6 µM.

What about the TGI (OVCAR-3 ovarian) of the same molecule?
Its TGI is 19.2 µM.

And the TGI (DMS 114 small cell lung)?
Its TGI is 14.6 µM.

And the TGI (HOP-18 NSCLC)?
The TGI was 23.3 µM.

What about the TGI (HCT-116 colon) of the same molecule?
Its TGI is 3.87 µM.

What about the TGI (UO-31 renal) of the same molecule?
Its TGI is 25.5 µM.

And the TGI (NCI-H460 lung)?
The TGI was 25.2 µM.

What about the TGI (SF-268 CNS) of the same molecule?
The TGI was 21.7 µM.

What about the TGI (IGROV1 ovarian) of the same molecule?
Its TGI is 31.9 µM.

What about the TGI (K-562 leukemia) of the same molecule?
The TGI was 32.7 µM.

What about the TGI (A498 renal) of the same molecule?
The TGI was 27 µM.

And the TGI (TK-10 renal)?
The TGI was 19.5 µM.

And the TGI (LOX IMVI melanoma)?
The TGI was 23 µM.
